Active and inactive are the calls of the source.
Tests used:
[1] = target: T1, Sentrin-specific protease 6 (Homo sapiens, UniProt Q9GZR1); format: functional;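 note: Luminescence-based dose-response confirmatory assay of SENP6 inhibition, following up an ultra-high-throughput screen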
T1 sequence (Q9GZR1 whole entry): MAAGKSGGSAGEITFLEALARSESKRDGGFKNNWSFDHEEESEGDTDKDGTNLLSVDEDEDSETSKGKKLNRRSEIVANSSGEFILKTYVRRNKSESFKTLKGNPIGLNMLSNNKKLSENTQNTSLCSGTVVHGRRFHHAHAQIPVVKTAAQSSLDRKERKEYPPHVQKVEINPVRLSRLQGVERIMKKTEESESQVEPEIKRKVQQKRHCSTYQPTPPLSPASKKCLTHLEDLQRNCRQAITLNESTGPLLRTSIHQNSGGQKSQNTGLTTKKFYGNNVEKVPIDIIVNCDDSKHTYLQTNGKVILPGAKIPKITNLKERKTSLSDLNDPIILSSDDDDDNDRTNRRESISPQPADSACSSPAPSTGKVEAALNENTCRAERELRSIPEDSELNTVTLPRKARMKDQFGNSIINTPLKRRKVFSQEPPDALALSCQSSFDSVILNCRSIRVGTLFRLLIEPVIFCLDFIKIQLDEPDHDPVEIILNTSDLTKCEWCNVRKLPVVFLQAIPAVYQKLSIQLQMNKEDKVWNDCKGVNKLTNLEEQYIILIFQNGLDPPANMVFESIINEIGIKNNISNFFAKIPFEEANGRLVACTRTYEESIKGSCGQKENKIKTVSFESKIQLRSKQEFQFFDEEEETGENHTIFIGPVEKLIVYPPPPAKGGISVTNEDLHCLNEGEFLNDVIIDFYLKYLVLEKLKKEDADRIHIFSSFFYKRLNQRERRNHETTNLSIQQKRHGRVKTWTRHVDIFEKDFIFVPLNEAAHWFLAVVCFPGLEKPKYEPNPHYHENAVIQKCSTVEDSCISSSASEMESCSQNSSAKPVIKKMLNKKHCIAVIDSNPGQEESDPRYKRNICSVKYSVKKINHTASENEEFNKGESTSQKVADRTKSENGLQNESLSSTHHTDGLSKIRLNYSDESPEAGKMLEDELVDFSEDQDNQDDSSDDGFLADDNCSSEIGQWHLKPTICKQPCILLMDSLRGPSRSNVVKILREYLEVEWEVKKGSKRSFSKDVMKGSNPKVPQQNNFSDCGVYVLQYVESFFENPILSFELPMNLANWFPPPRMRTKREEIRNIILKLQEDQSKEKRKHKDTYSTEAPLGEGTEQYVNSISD

[2] = target: Caspase-7 (Homo sapiens, UniProt P55210); test: human caspase-7 inhibitors, dose response, selectivity assay for caspase-6 inhibitor project, biochemical, DEVD-R110 fluorescence, cherry-pick (AID 743295)
Chain of Caspase-7 (P55210 24-198 limits assumed): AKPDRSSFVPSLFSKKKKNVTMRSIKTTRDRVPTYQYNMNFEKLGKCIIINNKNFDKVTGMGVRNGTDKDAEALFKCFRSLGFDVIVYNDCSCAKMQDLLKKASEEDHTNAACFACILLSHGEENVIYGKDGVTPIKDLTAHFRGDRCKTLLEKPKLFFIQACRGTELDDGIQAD
Chain of Caspase-7 (P55210 207-303 limits assumed): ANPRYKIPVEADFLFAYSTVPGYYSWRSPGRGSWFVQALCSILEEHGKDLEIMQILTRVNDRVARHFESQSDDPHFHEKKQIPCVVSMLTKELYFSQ

[3] = growth suppression of PTEN-null colon cells, dose response, cell-based, HCT116 PTEN knockout (AID 1047); format: functional;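 note: HCT116 colon tumor cells with PTEN knocked out; cells exposed to compound for 60 hours before readout; potency for loss of cell viability measured by luminescence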
[4] = Vero E6 cell cytotoxicity, dose response, cytotoxicity control for non-replicating M. tuberculosis project, secondary assay (AID 492998); format: functional, VeroE6; settings: Vero C1008
[5] = inhibitors of SNCA 5'UTR-driven reporter translation, confirmation, H4 neuroglioma cells, luminescence (AID 1988); format: functional, cell-based
[6] = tested on: BJ; test: cells; format: functional, cell-based; settings: Homo sapiens
[7] = inhibitors of firefly luciferase expression or activity, dose response, H4 neuroglioma cells, luminescence (AID 1990); format: functional, cell-based
[8] = target: T2, 1-phosphatidylinositol 4,5-bisphosphate phosphodiesterase beta-3 (Homo sapiens, UniProt Q01970); test: Fluorescence-based biochemical high throughput dose response assay to identify inhibitors of phospholipase C isozymes (PLC-B3).
T2 sequence (Q01970 whole entry): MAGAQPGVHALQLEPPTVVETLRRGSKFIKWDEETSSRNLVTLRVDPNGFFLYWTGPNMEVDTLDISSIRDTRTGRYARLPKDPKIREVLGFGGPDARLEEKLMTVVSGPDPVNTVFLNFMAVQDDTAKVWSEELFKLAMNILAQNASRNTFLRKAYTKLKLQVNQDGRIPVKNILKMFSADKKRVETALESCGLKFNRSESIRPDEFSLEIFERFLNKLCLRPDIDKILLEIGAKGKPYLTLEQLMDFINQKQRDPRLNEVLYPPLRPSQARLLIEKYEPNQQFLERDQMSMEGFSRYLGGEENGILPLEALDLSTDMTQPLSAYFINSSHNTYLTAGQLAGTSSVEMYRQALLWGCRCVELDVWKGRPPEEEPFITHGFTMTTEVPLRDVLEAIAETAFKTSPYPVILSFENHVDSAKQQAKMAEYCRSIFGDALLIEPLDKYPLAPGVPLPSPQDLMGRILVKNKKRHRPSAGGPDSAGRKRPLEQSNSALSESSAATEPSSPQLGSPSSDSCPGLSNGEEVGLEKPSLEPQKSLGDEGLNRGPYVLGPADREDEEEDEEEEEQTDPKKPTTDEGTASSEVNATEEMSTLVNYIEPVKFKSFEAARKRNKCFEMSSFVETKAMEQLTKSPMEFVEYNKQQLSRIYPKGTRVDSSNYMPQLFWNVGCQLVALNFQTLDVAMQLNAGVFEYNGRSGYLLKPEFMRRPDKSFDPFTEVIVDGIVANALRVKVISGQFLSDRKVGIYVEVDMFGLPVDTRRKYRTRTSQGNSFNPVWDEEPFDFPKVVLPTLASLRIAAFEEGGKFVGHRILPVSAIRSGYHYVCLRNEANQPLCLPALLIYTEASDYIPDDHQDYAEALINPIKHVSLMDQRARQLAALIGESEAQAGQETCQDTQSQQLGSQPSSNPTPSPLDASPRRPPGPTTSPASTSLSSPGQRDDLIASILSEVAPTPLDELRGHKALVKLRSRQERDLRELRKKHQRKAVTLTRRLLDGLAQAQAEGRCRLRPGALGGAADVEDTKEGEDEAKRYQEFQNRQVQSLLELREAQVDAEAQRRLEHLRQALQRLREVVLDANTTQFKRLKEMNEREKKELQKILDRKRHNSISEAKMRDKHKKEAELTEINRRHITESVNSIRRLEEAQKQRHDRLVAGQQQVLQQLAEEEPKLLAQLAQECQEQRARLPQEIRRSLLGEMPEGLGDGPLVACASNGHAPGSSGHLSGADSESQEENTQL

Oc1nc(Nc2ccccc2Cl)cc2ccccc12
IC50 [1]: 3.14 µM (active)
AC50 [2]: 12.2 µM (active)

Cc1nc2c(=O)n(C)c(=O)nc-2n(C)n1
EC50 [3]: 0.821 µM (active)
CC50 [4]: 4.51 µM (active)
EC50 [5]: 0.136 µM (active)
EC50 [6]: 5.69 µM (active)
EC50 [7]: 0.235 µM (active)

O=C(CCN1C(=O)/C(=C\c2ccco2)SC1=S)Nc1ccc(C(=O)O)c(O)c1
IC50 [8]: > 122 µM (inactive)

— ChEMBL document CHEMBL1201862, “PubChem BioAssay data set” (2004)
